According to publication PMC6525171, “15-deoxy-Δ^12,14-Prostaglandin J2 inhibits human soluble epoxide hydrolase by a dual orthosteric and allosteric mechanism” (Communications Biology, 2019):
Residue numbers refer to the chain shown, from its start.

Legend:
Assay type in all cases: biochemical
[1] = target: T1, human soluble epoxide hydrolase (hsEH CTD) (Homo sapiens, UniProt P34913, C423S/C522S); assay: PHOME spectrofluorimetric assay, Ki by Cheng-Prusoff
T1 construct: gene EPHX2; C-terminal domain, T230-M555
T1 sequence (P34913 230-555 C423S/C522S): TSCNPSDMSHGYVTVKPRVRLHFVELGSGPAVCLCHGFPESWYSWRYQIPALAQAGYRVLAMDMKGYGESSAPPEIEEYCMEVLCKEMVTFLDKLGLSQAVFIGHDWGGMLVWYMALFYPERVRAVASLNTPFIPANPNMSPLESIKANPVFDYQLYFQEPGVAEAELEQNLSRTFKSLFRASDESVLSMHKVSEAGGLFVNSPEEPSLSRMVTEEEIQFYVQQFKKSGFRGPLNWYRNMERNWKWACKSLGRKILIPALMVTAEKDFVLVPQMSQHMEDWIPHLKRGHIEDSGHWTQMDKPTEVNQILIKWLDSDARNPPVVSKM

[2] = target: T2, human soluble epoxide hydrolase (hsEH CTD) (Homo sapiens, UniProt P34913, C423S); assay: HPLC, UV and CD of purified covalent adduct; PHOME activity of adduct vs apoprotein
T2 construct: gene EPHX2; C-terminal domain, T230-M555
T2 sequence (P34913 230-555 C423S): T1 sequence (P34913 230-555 C423S/C522S) with S293C

[3] = target: T3, human soluble epoxide hydrolase (hsEH CTD) (Homo sapiens, UniProt P34913); assay: X-ray crystal structure ([…] Å, non-covalent complex), STD-NMR; ESI-MS and LC-MS/MS of covalent adducts; Ki from PHOME fluorescence assay
T3 construct: gene EPHX2; C-terminal domain, T230-M555
T3 sequence (P34913 230-555): T1 sequence (P34913 230-555 C423S/C522S) with S194C, S293C

[4] = target: T4, human soluble epoxide hydrolase (hsEH CTD) (Homo sapiens, UniProt P34913, C522S); assay: HPLC, UV and CD of purified covalent adduct; PHOME activity of adduct vs apoprotein
T4 construct: gene EPHX2; C-terminal domain, T230-M555
T4 sequence (P34913 230-555 C522S): T1 sequence (P34913 230-555 C423S/C522S) with S194C

Ki [1]: 8.56 µM
Ki [3]: 13 µM
SMILES: CCCCC/C=C/C=C1/C(=O)C=C[C@@H]1C/C=C/CCCC(=O)O [15d-PGJ2]
HPLC, UV and CD of purified covalent adduct; PHOME activity of adduct vs apoprot [2]: with the single modification of C423S and C522S mutants inhibiting the enzyme to a lesser extent
HPLC, UV and CD of purified covalent adduct; PHOME activity of adduct vs apoprot [4]: with the single modification of C423S and C522S mutants inhibiting the enzyme to a lesser extent
